# Measured values: patent US7524847B2, “Fused 1,3-dihydro-imidazole ring compounds” (Eisai R&D Management Co., Ltd., priority 2002, dated 2009)
# Structures can show the parent of a compound that is named as a salt.
# How the values were obtained:
# [1] = target: T1, DPP-IV obtained from pig kidney (Sus scrofa, UniProt P22411); test: Measurement of DPPIV-inhibiting activity (in vitro experiment); format: biochemical; settings: DPP-IV from pig kidney 10 mU/mL, substrate Gly-Pro-p-nitroanilide 0.33 mM, 20 min preincubation, 20 min reaction, absorbance 405 nm
# T1 construct: DPP-IV obtained from pig kidney; from tissue; host or cells: pig kidney
# Method: DPP-IV obtained from pig kidney was dissolved in a reaction buffer (50 mM Tris-HCl pH7.4, 0.1% BSA) at 10 mU/mL, and 110 μL of this was used. 15 μL of the drug obtained from the aforementioned Examples was added, and this was incubated at room temperature for 20 minutes, and then 25 μL of a 2 mM solution of Gly-Pro-p-nitroanilide (final concentration 0.33 mM) was added to start the enzymatic reaction. The reaction time was 20 minutes, and 1 N phosphoric acid solution (25 μL) was added to stop the reaction.
# [2] = test system: normal mice (male C57BL/6N); test: Effects on glucose tolerance in normal mice (in vivo experiment); settings: 1 mg/kg oral, 30 min before oral glucose 2 g/kg; blood glucose AUC0-120; 0.5% MC group = 100%, NVP DPP728 (10 mg/kg) group = 0%; lower = better
# Method: Animals: Male C57BL/6N mice (purchased from Japan Charles River) The test compounds were suspended in a 0.5% methylcellulose (MC) solution at the doses indicated below in Table 2. These test compounds and the NVP DPP728 (U.S. Pat. No. 6,011,155) suspension, or the 0.5% MC solution (the solvent control group), were administered orally at a dose of 10 mL/kg. 30 minutes later, a glucose solution was orally administered at a dose of 10 mL/kg. Glucose was orally administered at a dose of 2 g/kg. The tail vain of unanesthetized mice was cut with a razor blade to cause a small amount of bleeding immediately before administering the test substances or NVP DPP728, and immediately before, as well as 30, 60, and 120 minutes after, administration of the glucose solution. 10 μL of blood was collected, and this was mixed immediately with 0.6 M perchloric acid (140 μL). Glucose present in the supernatant obtained by centrifugation (1500 g, 10 minutes, 4° C., refrigerated centrifuge GS-6KR, Beckman) was measured using Glucose CII Test Wako (Wako Pure Chemicals). Results: In each of the groups to which 0.5% MC solution, NVP DPP728, and the test compounds were administered, the area under the curve of blood glucose vs. time was calculated over 0 to 120 minutes from the time of glucose administration (AUC0-120). Defining the AUC0-120 for the 0.5% MC solution-administered group as 100%, and the AUC0-120 for the NVP DPP728 (10 mg/kg)-administered group as 0%, the degree of improvement in glucose tolerance due to the test compound was calculated by the following equation: Degree of improvement in glucose tolerance (%)=(AUC0-120 of the test compound−AUC0-120 of the NVP DPP728 (10 mg/kg)-administered group)/(AUC0-120 of the 0.5% MC solution-administered group−AUC0-120 of the NVP DPP728 (10 mg/kg)-administered group)×100 The lower the % value, the better the degree of improvement in glucose tolerance.
# T1 sequence (P22411 whole entry): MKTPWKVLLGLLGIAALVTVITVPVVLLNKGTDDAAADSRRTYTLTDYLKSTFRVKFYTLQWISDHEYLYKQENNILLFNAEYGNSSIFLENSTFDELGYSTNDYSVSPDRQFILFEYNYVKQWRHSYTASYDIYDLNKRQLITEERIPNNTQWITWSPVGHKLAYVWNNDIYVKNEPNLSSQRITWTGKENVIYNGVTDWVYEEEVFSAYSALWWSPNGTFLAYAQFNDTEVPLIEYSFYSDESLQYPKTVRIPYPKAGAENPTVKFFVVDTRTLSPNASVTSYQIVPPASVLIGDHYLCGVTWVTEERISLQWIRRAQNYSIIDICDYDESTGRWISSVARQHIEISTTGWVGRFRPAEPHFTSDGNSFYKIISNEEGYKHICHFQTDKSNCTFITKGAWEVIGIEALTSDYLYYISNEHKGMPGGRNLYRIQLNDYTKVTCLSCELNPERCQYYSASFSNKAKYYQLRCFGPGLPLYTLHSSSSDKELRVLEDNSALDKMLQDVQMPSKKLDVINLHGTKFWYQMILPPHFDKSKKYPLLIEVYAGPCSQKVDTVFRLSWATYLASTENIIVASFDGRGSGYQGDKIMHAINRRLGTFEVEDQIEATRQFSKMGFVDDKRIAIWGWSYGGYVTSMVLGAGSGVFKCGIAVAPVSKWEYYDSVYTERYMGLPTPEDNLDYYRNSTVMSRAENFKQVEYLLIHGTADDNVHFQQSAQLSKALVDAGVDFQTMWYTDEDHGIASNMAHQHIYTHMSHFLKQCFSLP
IC50 [1] [nM],Structure (SMILES),Degree of improvement in glucose tolerance (%) [2] [%]
175,"CC#CCn1c(=O)n(CCC)c2nc(OC)nc(N3CCNCC3)c21.O=C(O)C(F)(F)F [Example 52, 7-(2-Butynyl)-2-methoxy-6-(piperazin-1-yl)-9-propyl-7,9-dihydropurin-8-one trifluoroacetic acid salt]",29.7
224,"C=CCn1c(=O)n(CC#CC)c2c(N3CCNCC3)ncnc21.O=C(O)C(F)(F)F [Example 69, 9-Allyl-7-(2-butynyl)-6-(piperazin-1-yl)-7,9-dihydropurin-8-one trifluoroacetic acid salt]",44.1
119,"C=CCn1c(=O)n(CC#CC)c2c(N3CCNCC3)nc(OCC)nc21 [Example 59, 9-Allyl-7-(2-butynyl)-2-ethoxy-6-(piperazin-1-yl)-7,9-dihydropurin-8-one trifluoroacetic acid salt]",
150,"CC#CCn1c(=O)n(CC2CC2)c2nc(Cl)nc(N3CCNCC3)c21 [Example 38, 7-(2-Butynyl)-2-chloro-9-cyclopropylmethyl-6-(piperazin-1-yl)-7,9-dihydropurin-8-one trifluoroacetic acid salt]",
409,"N#Cc1ccccc1Cn1c(=O)n(Cc2ccccc2)c2c(N3CCNCC3)ncc(Oc3ccccc3C(N)=O)c21 [Example 81, 2-[3-Benzyl-1-(2-cyanobenzyl)-2-oxo-4-piperazin-1-yl-2,3-dihydro-1H-imidazo[4.5-c]pyridin-7-yloxy]-benzamide trifluoroacetic acid salt]",
119,"C=CCn1c(=O)n(CC#CC)c2c(N3CCNCC3)nc(Oc3ccccc3C(N)=O)nc21 [Example 60, 2-[9-Allyl-7-(2-butynyl)-8-oxo-6-(piperazin-1-yl)-8,9-dihydro-7H-purin-2-yloxy]benzamide trifluoroacetic acid salt]",
32.3,"CC#CCn1c(=O)n(Cc2ccccc2C(N)=O)c2nc(Cl)nc(N3CCNCC3)c21 [Example 39, 2-[7-(2-Butynyl)-2-chloro-8-oxo-6-(piperazin-1-yl)-7,8-dihydropurin-9-ylmethyl]benzamide trifluoroacetic acid salt]",
187,"CC#CCn1c(=O)n(-c2ccc(=O)n(C)c2)c2ncnc(N3CCNCC3)c21 [Example 68, 7-(2-Butynyl)-9-(1-methyl-6-oxo-1,6-dihydro-pyridin-3-yl)-6-(piperazin-1-yl)-7,9-dihydropurin-8-one trifluoroacetic acid salt]",
2.92,"CC#CCn1c(=O)n(Cc2ccccc2C#N)c2nc(Cl)nc(N3CCNCC3)c21 [Example 29, 2-[7-(2-Butynyl)-2-chloro-8-oxo-6-(piperazin-1-yl)-7,8-dihydropurin-9-ylmethyl]benzonitrile trifluoroacetic acid salt]",
15.6,"C=Cc1ccc(-n2c(=O)n(CC#CC)c3c(N4CCNCC4)nc(OC)nc32)cc1 [Example 58, 7-(2-Butynyl)-2-methoxy-6-(piperazin-1-yl)-9-(4-vinyl-phenyl)-7,9-dihydropurin-8-one trifluoroacetic acid salt]",
3800,"Cn1c(=O)n(Cc2ccccc2)c2c(N3CCNCC3)ncnc21 [Example 78, 7-Benzyl-9-methyl-6-(piperazin-1-yl)-7,9-dihydropurin-8-one trifluoroacetic acid salt]",
48.4,"CC#CCn1c(=O)n(Cc2ccc(C#N)cc2)c2ncnc(N3CCNCC3)c21 [Example 73, 4-[7-(2-Butynyl)-8-oxo-6-(piperazin-1-yl)-7,8-dihydropurin-9-ylmethyl]benzonitrile trifluoroacetic acid salt]",
334,"CC#CCn1c(=O)n(C)c2nc(N(C)C)nc(N3CCNCC3)c21 [Example 4, 7-(2-Butynyl)-2-dimethylamino-9-methyl-6-(piperazin-1-yl)-7,9-dihydropurin-8-one trifluoroacetic acid salt]",
1060,"CC#CCn1c(=O)n(C)c2ncnc(N3CCNCC3)c21 [Example 76, 7-(2-Butynyl)-9-methyl-6-(piperazin-1-yl)-7,9-dihydropurin-8-one trifluoroacetic acid]",
5410,"CC(C)=CCn1c(=O)n(C)c2nc(Cl)nc(N3CCNCC3)c21 [Example 19, 2-Chloro-9-methyl-7-(3-methyl-2-butenyl)-6-(piperazin-1-yl)-7,9-dihydropurin-8-one trifluoroacetic acid salt]",
163,"CC#CCn1c(=O)n(CC(N)=O)c2nc(Cl)nc(N3CCNCC3)c21 [Example 33, 2-[7-(2-Butynyl)-2-chloro-8-oxo-6-(piperazin-1-yl)-7,8-dihydropurin-9-yl]acetamide trifluoroacetic acid salt]",
8130,"CC(C)=CCn1c(=O)n(C)c2ncnc(N3CCNCC3)c21 [Example 77, 9-Methyl-7-(3-methyl-2-butenyl)-6-(piperazin-1-yl)-7,9-dihydropurin-8-one trifluoroacetic acid salt]",
132,"CC#CCn1c(=O)n(-c2ccoc2)c2nc(Cl)nc(N3CCNCC3)c21 [Example 44, 7-(2-Butynyl)-2-chloro-9-(furan-3-yl)-6-(piperazin-1-yl)-7,9-dihydropurin-8-one trifluoroacetic acid salt]",
921,"CC#CCn1c(=O)[nH]c2ncnc(N3CCNCC3)c21 [Example 75, 7-(2-Butynyl)-6-(piperazin-1-yl)-7,9-dihydropurin-8-one trifluoroacetic acid salt]",
1370,"CC#CCn1c(=O)[nH]c2nc(OC)nc(N3CCNCC3)c21 [Example 53, 7-(2-Butynyl)-2-methoxy-6-(piperazin-1-yl)-7,9-dihydropurin-8-one trifluoroacetic acid salt]",
14,"CC#CCn1c(=O)n(CCc2ccccc2)c2ncnc(N3CCNCC3)c21 [Example 74, 7-(2-Butynyl)-9-phenethyl-6-(piperazin-1-yl)-7,9-dihydropurin-8-one trifluoroacetic acid salt]",
13600,"CC#CCn1c(=S)n(C)c2ncnc(N3CCNCC3)c21 [Example 84, 7-(2-Butynyl)-9-methyl-6-(piperazin-1-yl)-7,9-dihydropurin-8-thione trifluoroacetic acid salt]",
14.8,"CC#CCn1c(=O)n(CCc2ccccc2)c2nc(Cl)nc(N3CCNCC3)c21 [Example 34, 7-(2-Butynyl)-2-chloro-9-(2-phenylethyl)-6-(piperazin-1-yl)-7,9-dihydropurin-8-one trifluoroacetic acid salt]",
4.2,"CC#CCn1c(=O)n(Cc2ccccc2C#N)c2ncnc(N3CCNCC3)c21 [Example 79, 2-[7-(2-Butynyl)-8-oxo-6-piperazin-1-yl-7,8-dihydropurin-9-ylmethyl]benzonitrile trifluoroacetic acid salt]",
3010,"N#Cc1ccccc1Cn1c(=O)n(Cc2ccccc2)c2c(N3CCNCC3)nccc21 [Example 80, 2-(3-Benzyl-2-oxo-4-piperazin-1-yl-2,3-dihydroimidazo[4.5-c]pyridin-1-ylmethyl)benzonitrile]",
3140,"CC#CCn1c(=O)n(C)c2nc(Cl)nc(N3CCCC(N)C3)c21 (stereo not shown) [Example 27, 6-(3-Amino-piperidin-1-yl)-7-(2-butynyl)-2-chloro-9-methyl-7,9-dihydropurin-8-one trifluoroacetic acid salt]",
325,"CC#CCn1c(=O)n(C)c2nc(N(CC)CC)nc(N3CCNCC3)c21 [Example 3, 7-(2-Butynyl)-2-diethylamino-9-methyl-6-(piperazin-1-yl)-7,9-dihydropurin-8-one trifluoroacetic acid salt]",
89500,"CC#CCn1c(=O)n(C)c2nc(Cl)nc(N3CCCC(NC)C3)c21 (stereo not shown) [Example 28, 7-(2-Butynyl)-2-chloro-9-methyl-6-(3-methylamino-piperidin-1-yl)-7,9-dihydropurin-8-one trifluoroacetic acid salt]",
259,"CC#CCn1c(=O)n(CC(=O)O)c2nc(Cl)nc(N3CCNCC3)c21 [Example 31, [7-(2-Butynyl)-2-chloro-8-oxo-6-(piperazin-1-yl)-7,8-dihydropurin-9-yl]acetic acid trifluoroacetic acid salt]",
